Data from patent US9206200B2, “N-linked lactam M1 receptor positive allosteric mogulators” (Merck Sharp & Dohme Corp., priority 2011, dated 2015).
pEC50: −log10 of the molar value.

What follows are compounds tested against T1, acetylcholine muscarinic M1 receptor (Homo sapiens, UniProt P11229) (assay: muscarinic FLIPR assay: intracellular calcium in CHOnfat/hM1 cells, potentiation of EC20 acetylcholine). Settings: M1 Pot., Table 2; CHOnfat/hM1 cells, FLIPR, EC20 acetylcholine (3 nM final).
T1 construct: expressed in transfected cells; host or cells: CHOnfat cells (CHO cells with an NFAT reporter) expressing hM1, kept under Geneticin selection
T1 sequence (P11229 1-460): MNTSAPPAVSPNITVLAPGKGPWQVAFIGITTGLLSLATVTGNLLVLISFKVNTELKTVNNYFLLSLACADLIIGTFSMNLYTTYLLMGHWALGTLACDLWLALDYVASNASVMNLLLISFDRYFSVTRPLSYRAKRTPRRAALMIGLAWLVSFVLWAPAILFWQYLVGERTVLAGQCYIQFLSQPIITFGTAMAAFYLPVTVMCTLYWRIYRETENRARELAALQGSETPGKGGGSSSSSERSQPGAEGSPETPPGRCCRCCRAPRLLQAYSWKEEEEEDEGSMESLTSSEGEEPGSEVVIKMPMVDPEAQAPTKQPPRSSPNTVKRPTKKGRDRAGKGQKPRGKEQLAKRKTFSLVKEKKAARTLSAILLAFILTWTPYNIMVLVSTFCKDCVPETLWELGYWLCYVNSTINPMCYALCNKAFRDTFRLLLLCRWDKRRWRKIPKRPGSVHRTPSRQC
Type: cell-based
Summary of the method: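 CHOnfat cells stably expressing human M1, Fluo-4AM-loaded, in HBSS with 20 mM HEPES, 2.5 mM probenecid, 1% BSA. Compounds preincubated 4 min (printed "4 mM") before an EC20 acetylcholine challenge (3 nM final). FLIPR intracellular Ca²⁺ signal compared with 3 nM acetylcholine alone to detect potentiation.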
`CN(C)C(=O)Oc1cccc(N2Cc3c(cc(CN4CCC(F)(C#N)CC4)c4cccnc34)C2=O)c1` [Example 129, 3-{5-[(4-cyano-4-fluoropiperidin-1-yl)methyl]-7-oxo-7,9-dihydro-8H-pyrrolo[3,4-h]quinolin-8-yl}phenyl dimethyl carbamate] gave a pEC50 of 5.66.

Same assay, conditions: Table 1; CHOnfat/hM1 cells, FLIPR, EC20 acetylcholine (3 nM final); read-out: M1 Pot.
`CS(=O)(=O)N1CCN(Cc2cc3c(c4ccccc24)CN(C2CCCCC2O)C3=O)CC1` (stereo not shown) [Example 15, 2-(2-hydroxycyclohexyl)-5-{[4-(methylsulfonyl)piperazin-1-yl]methyl}-1,2-dihydro-3H-benzo[e]isoindol-3-one] showed a pEC50 of 6.14. Work on `O=C1c2cc(CN3C[C@@H](F)[C@H](F)C3)c3ccccc3c2CN1C1CCCCC1O` (relative stereo) [Example 29, 5-{[trans-3,4-difluoropyrrolidin-1-yl]methyl}-2-(2-hydroxycyclohexyl)-1,2-dihydro-3H-benzo[e]isoindol-3-one] yielded a pEC50 of 6.62. `N#CC1(c2ccccn2)CCN(Cc2cc3c(c4ccccc24)CN(c2ccccc2F)C3=O)CC1` [Example 62, 1-{[2-(2-fluorophenyl)-3-oxo-2,3-dihydro-1H-benzo[e]isoindol-5-yl]methyl}-4-pyridin-2-ylpiperidine-4-carbonitrile] gave a pEC50 of 6.19. With `O=C1c2cc(CN3CCC(C(F)(F)F)CC3)c3ccccc3c2CN1C1CCCCC1O` (stereo not shown) [Example 27, 2-(2-hydroxycyclohexyl)-5-{[4-(trifluoromethyl)piperidin-1-yl]methyl}-1,2-dihydro-3H-benzo[e]isoindol-3-one] the pEC50 was 6.44. `CC1c2c(cc(CN3CCC(C#N)(c4ccccn4)CC3)c3ccccc23)C(=O)N1[C@H]1CCCC[C@@H]1O` (single isomer, unassigned) [Example 44] gave a pEC50 of 8.02. `O=C1c2cc(CN3CCc4ccccc4C3c3ccncc3)c3ccccc3c2CN1c1ccccc1F` (stereo not shown) [Example 65, 2-(2-fluorophenyl)-5-{[1-(pyridin-4-yl)-3,4-dihydroisoquinolin-2(1H)-yl]methyl}-1,2-dihydro-3H-benzo[e]isoindol-3-one] gave a pEC50 of 5.86. Compound `O=C1c2cc(CN3CCCCC3)c3ccccc3c2CN1[C@H]1CCCC[C@@H]1O` [Example 11] has a pEC50 of 5.31. In the case of `N#CC1(c2ccncc2)CCN(Cc2cc3c(c4ccccc24)CN([C@H]2CCCC[C@@H]2O)C3=O)CC1` [Example 58, 1-({2-[(1S,2S)-2-hydroxycyclohexyl]-3-oxo-2,3-dihydro-1H-benzo[e]isoindol-5-yl}methyl)-4-pyridin-4-ylpiperidine-4-carbonitrile], the pEC50 was 7.68. For `O=C1c2cc(CN3CCCC3C(F)(F)F)c3ccccc3c2CN1C1CCCCC1O` (stereo not shown) [Example 30, 2-(2-hydroxycyclohexyl)-5-{[2-(trifluoromethyl)pyrrolidin-1-yl]methyl}-1,2-dihydro-3H-benzo[e]isoindol-3-one], the pEC50 was 5.57. Work on `CC1(O)CCN(Cc2cc3c(c4ccccc24)CN(C2CCCCC2O)C3=O)CC1` (stereo not shown) [Example 37, 2-(2-hydroxycyclohexyl)-5-[(4-hydroxy-4-methylpiperidin-1-yl)methyl]-1,2-dihydro-3H-benzo[e]isoindol-3-one] yielded a pEC50 of under 5.96. In the case of `Cn1cc(N2CCN(Cc3cc4c(c5ccccc35)CN([C@H]3CCCC[C@@H]3O)C4=O)CC2)cn1` [Example 80, 2-[(1S,2S)-2-hydroxycyclohexyl]-5-{[4-(1-methyl-1H-pyrazol-4-yl)piperazin-1-yl]methyl}-1,2-dihydro-3H-benzo[e]isoindol-3-one], the pEC50 was 5.79. Compound `COc1ccc(N2CCN(Cc3cc4c(c5ccccc35)CN([C@H]3CCCC[C@@H]3O)C4=O)C(C)C2)cc1` (stereo partly drawn) [Example 70, 2-[(1S,2S)-2-hydroxycyclohexyl] 5-{[4-(4-methoxyphenyl)-2-methylpiperazin-1-yl]methyl}-1,2-dihydro-3H-benzo[e]isoindol-3-one] has a pEC50 of 6.82. For `O=C1c2cc(CN3CCN(c4ccccc4)CC3)c3ccccc3c2CN1[C@H]1CCCC[C@@H]1O` [Example 72, 2-[(1S,2S)-2-hydroxycyclohexyl]-5-[(4-phenylpiperazin-1-yl)methyl]-1,2-dihydro-3H-benzo[e]isoindol-3-one], the pEC50 was 7.14. `O=C1c2cc(CN3CCN(c4ccc5ncsc5c4)CC3)c3ccccc3c2CN1c1ccccc1F` [Example 85, 5-{[4-(1,3-benzothiazol-6-yl)piperazin-1-yl]methyl}-2-(2-fluorophenyl)-1,2-dihydro-3H-benzo[e]isoindol-3-one] showed a pEC50 of 5.94. `Cn1cc(N2CCN(Cc3cc4c(c5ccccc35)CN(C3CCCOC3)C4=O)CC2)cn1` (stereo not shown) [Example 83, 5-{[4-(1-methyl-1H-pyrazol-4-yl)piperazin-1-yl]methyl}-2-(tetrahydro-2H-pyran-3-yl)-1,2-dihydro-3H-benzo[e]isoindol-3-one] showed a pEC50 of 5.41. For `N#CC1(c2cccnc2)CCN(Cc2cc3c(c4ccccc24)CN([C@H]2CCCC[C@@H]2O)C3=O)CC1` [Example 57], the pEC50 was 7.66. For `O=C1c2cc(CN3CCC(O)(c4ccncc4)CC3)c3ccccc3c2CN1C1CCCCC1O` (stereo not shown) [Example 43, 2-(2-hydroxycyclohexyl)-5-[(4-hydroxy-4-pyridin-4-ylpiperidin-1-yl)methyl]-1,2-dihydro-3H-benzo[e]isoindol-3-one], the pEC50 was 6.08.

Same assay, conditions: Table 2; CHOnfat/hM1 cells, FLIPR, EC20 acetylcholine (3 nM final); read-out: M1 Pot.
With `O=C1c2cc(CN3CCC4(CC3)COc3ccccc34)c3cccnc3c2CN1C1CCCCC1O` (stereo not shown) [Example 95, 8-(2-hydroxycyclohexyl)-5-(1′H-spiro[1-benzofuran-3,4′-piperidin]-1′-ylmethyl)-8,9-dihydro-7H-pyrrolo[3,4-h]quinolin-7-one] the pEC50 was 6.54. `O=C1c2cc(CN3CCN(c4ccncc4)CC3)c3cccnc3c2CN1C1CCCCC1O` (stereo not shown) [Example 160, 8-(2-hydroxycyclohexyl)-5-[(4-pyridin-4-ylpiperazin-1-yl)methyl]-8,9-dihydro-7H-pyrrolo[3,4-h]quinolin-7-one] was tested, and the pEC50 was 6.96. With `CC1(F)CCN(Cc2cc3c(c4ncccc24)CN([C@H]2CCCC[C@@H]2O)C3=O)CC1` [Example 102, 5-[(4-fluoro-4-methylpiperidin-1-yl)methyl]-8-[(1S,2S)-2-hydroxycyclohexyl]-8,9-dihydro-7H-pyrrolo[3,4-h]quinolin-7-one] the pEC50 was 6.60. `O=C1c2cc(CN3CCCC(F)C3)c3cccnc3c2CN1C1CCCCC1O` (stereo not shown) [Example 121, 5-[(3-fluoropiperidin-1-yl)methyl]-8-(2-hydroxycyclohexyl)-8,9-dihydro-7H-pyrrolo[3,4-h]quinolin-7-one] was tested, and the pEC50 was 6.97. `CC1c2c(cc(CN3CCC(C#N)(c4ccccc4)CC3)c3cccnc23)C(=O)N1C1CCCCC1O` (stereo not shown) [Example 137, 1-{[8-(2-hydroxycyclohexyl)-9-methyl-7-oxo-8,9-dihydro-7H-pyrrolo[3,4-h]quinolin-5-yl]methyl}-4-phenylpiperidine-4-carbonitrile] showed a pEC50 of 6.32. In the case of `CC1(C)CCN(Cc2cc3c(c4ncccc24)CN(C2CCCCC2O)C3=O)CC1` (stereo not shown) [Example 100, 5-[(4,4-dimethylpiperidin-1-yl)methyl]-8-(2-hydroxycyclohexyl)-8,9-dihydro-7H-pyrrolo[3,4-h]quinolin-7-one], the pEC50 was 6.37. `O=C1c2cc(CN3CCC(F)(c4ccccn4)CC3)c3cccnc3c2CN1C1CCCCC1O` (stereo not shown) [Example 146, 5-[(4-fluoro-4-pyridin-2-ylpiperidin-1-yl)methyl]-8-(2-hydroxycyclohexyl)-8,9-dihydro-7H-pyrrolo[3,4-h]quinolin-7-one] was tested, and the pEC50 was 7.96. `CC1c2c(cc(CN3CCC(c4ccncc4)CC3)c3cccnc23)C(=O)N1C1CCCCC1O` (stereo not shown) [Example 161, 8-(2-hydroxycyclohexyl)-9-methyl-5-[(4-pyridin-4-ylpiperidin-1-yl)methyl]-8,9-dihydro-7H-pyrrolo[3,4-h]quinolin-7-one] was tested, and the pEC50 was 6.19. For `O=C1c2cc(CN3CCN(c4cccnc4)CC3)c3cccnc3c2CN1C1CCCCC1O` (stereo not shown) [Example 162, 8-(2-hydroxycyclohexyl)-5-[(4-pyridin-3-ylpiperazin-1-yl)methyl]-8,9-dihydro-7H-pyrrolo[3,4-h]quinolin-7-one], the pEC50 was 7.55. With `O=C1c2cc(CN3CCOCC3)c3cccnc3c2CN1C1CCCCC1O` (stereo not shown) [Example 99, 8-(2-hydroxycyclohexyl)-5-(morpholin-4-ylmethyl)-8,9-dihydro-7H-pyrrolo[3,4-h]quinolin-7-one] the pEC50 was 6.82. In the case of `COc1ccc(N2CCN(Cc3cc4c(c5ncccc35)CN(C3CCCCC3O)C4=O)CC2)cc1` (stereo not shown) [Example 168, 8-(2-hydroxycyclohexyl)-5-{[4-(4-methoxyphenyl)piperazin-1-yl]methyl}-8,9-dihydro-7H-pyrrolo[3,4-h]quinolin-7-one], the pEC50 was 7.62. In the case of `COc1ccc(N2CCN(Cc3cc4c(c5ncccc35)C(C)N(C3CCCCC3O)C4=O)CC2)cc1` (stereo not shown) [Example 170, 8-(2-hydroxycyclohexyl)-5-{[4-(4-methoxyphenyl)piperazin-1-yl]methyl}-9-methyl-8,9-dihydro-7H-pyrrolo[3,4-h]quinolin-7-one], the pEC50 was 7.00.

Same assay, conditions: Table 3; inflection point calculated from the FLIPR values; EC20 acetylcholine (3 nM final); read-out: IP Value
In the case of `COc1cccc(C2(C#N)CCN(Cc3cc4c(c5ccccc35)CN([C@H]3CCCC[C@@H]3O)C4=O)CC2)n1` [Example 6, 1-({2-[(1S,2S)-2-Hydroxycyclohexyl]-3-oxo-2,3-dihydro-1H-benzo[e]isoindol-5-yl}methyl)-4-(6-methoxypyridin-2-yl)piperidine-4-carbonitrile], the pEC50 was 7.19.
